In patent US7416722B2, “Concentrated, aqueous solutions of p-methoxybenzoic acid for use in cosmetic and dermatologic formulations” (Dr. Straetmans GmbH, priority 2005, dated 2008):
Values after ≈ are worked out from the molar mass of the structure shown.

Experiment: solubility of p-methoxybenzoic acid in water
Assay type: physicochemical
Excerpt: p-Methoxybenzoic acid can be obtained under the trade name of DERMOSOFT® 688 from Dr. Straetmans GmbH in a cosmetical grade. The solubility of p-methoxybenzoic acid in water is approximately […]. For use in a cosmetic formulation the product is usually brought into solution with sodium hydroxide or potassium hydroxide in a small amount of water at warm temperatures and worked into an aqueous phase. To evolve the spectrum of effects of p-methoxybenzoic acid completely, afterwards the formula should be re-acidified to a pH-value of 5.5. […] This may show, that the initial homogenous solutions are merely meta-stable systems.

For COc1ccc(C(=O)O)cc1 [p-methoxybenzoic acid], the solubility was about 5000 µg/mL (≈ 32.9 mM).
